Source: the supplement of paper PMC10307832

What was measured:
Experiment in all cases: relative viability (nuclei count vs DMSO), 5 days (fraction); higher = more cells survive
Crenolanib + Decitabine = compound: CC1(COc2ccc3c(c2)ncn3-c2ccc3cccc(N4CCC(N)CC4)c3n2)COC1 [Crenolanib] + Nc1ncn([C@H]2C[C@H](O)[C@@H](CO)O2)c(=O)n1 [Decitabine] (partner 2 µM)
How it was run: (§1)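 Relative viability is defined as nuclei in treated wells over nuclei in vehicle wells. Duplicate plates were run and medians reported. Lung cancer cell lines in 1536-well plates were dosed by pin tool one day after seeding, with one drug or with a fixed anchor-drug dose plus five library-drug doses (not always all listed) in √10 steps, and nuclei were counted after 5 days.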

Crenolanib + Crizotinib = compound: CC1(COc2ccc3c(c2)ncn3-c2ccc3cccc(N4CCC(N)CC4)c3n2)COC1 [Crenolanib] + C[C@@H](Oc1cc(-c2cnn(C3CCNCC3)c2)cnc1N)c1c(Cl)ccc(F)c1Cl [Crizotinib] (partner 1 µM)
How it was run: as §1

Tivantinib + Vorinostat = compound: O=C1NC(=O)[C@@H](c2cn3c4c(cccc24)CCC3)[C@@H]1c1c[nH]c2ccccc12 [Tivantinib] + O=C(CCCCCCC(=O)Nc1ccccc1)NO [Vorinostat] (partner 1 µM)
How it was run: as §1

Tivantinib + Tozasertib = compound: O=C1NC(=O)[C@@H](c2cn3c4c(cccc24)CCC3)[C@@H]1c1c[nH]c2ccccc12 [Tivantinib] + Cc1cc(Nc2cc(N3CCN(C)CC3)nc(Sc3ccc(NC(=O)C4CC4)cc3)n2)n[nH]1 [Tozasertib] (partner 0.1 µM)
How it was run: as §1

Row | Cell Line | relative viability (Crenolanib + Decitabine; first compound 0.01 µM) | relative viability (Crenolanib + Decitabine; first compound 0.03162 µM) | relative viability (Crenolanib + Decitabine; first compound 0.1 µM) | relative viability (Crenolanib + Decitabine; first compound 0.3162 µM) | relative viability (Crenolanib + Decitabine; first compound 1 µM) | relative viability (Crenolanib + Crizotinib; first compound 0.01 µM) | relative viability (Crenolanib + Crizotinib; first compound 0.03162 µM) | relative viability (Crenolanib + Crizotinib; first compound 0.1 µM) | relative viability (Crenolanib + Crizotinib; first compound 0.3162 µM) | relative viability (Crenolanib + Crizotinib; first compound 1 µM) | relative viability (Tivantinib + Vorinostat; first compound 0.01 µM) | relative viability (Tivantinib + Vorinostat; first compound 0.03162 µM) | relative viability (Tivantinib + Vorinostat; first compound 0.1 µM) | relative viability (Tivantinib + Vorinostat; first compound 0.3162 µM) | relative viability (Tivantinib + Tozasertib; first compound 0.01 µM) | relative viability (Tivantinib + Tozasertib; first compound 0.03162 µM) | relative viability (Tivantinib + Tozasertib; first compound 0.1 µM) | relative viability (Tivantinib + Tozasertib; first compound 0.3162 µM)
1 | HCC-78 | 0.673 | 0.634 | 0.734 | 0.838 | 0.652 | 0.371 | 0.367 | 0.393 | 0.34 | 0.31 | 0.48 | 0.408 | 0.346 | 0.337 | 0.443 | 0.437 | 0.405 | 0.277
2 | HOP-62 | 0.222 | 0.19 | 0.29 | 0.205 | 0.234 | 0.87 | 1.03 | 0.984 | 0.821 | 1.02 | 0.606 | 0.301 | 0.554 | 0.803 | 0.383 | 0.352 | 0.385 | 0.377
3 | NCI-H1623 |  |  |  |  |  |  |  |  |  |  |  |  |  |  | 0.388 | 0.424 | 0.441 | 
4 | NCI-H2405 | 0.775 |  | 0.671 | 0.781 | 0.686 | 0.899 | 0.94 | 0.623 | 0.809 | 0.837 | 1.17 | 1.04 | 1 | 1.26 | 0.759 | 0.782 | 0.756 | 0.707
5 | PC-3 [JPC-3] | 0.785 |  | 0.806 | 0.82 | 0.806 | 0.975 | 0.958 | 0.907 | 1.05 | 0.991 | 0.791 | 0.979 | 0.891 | 0.807 | 0.877 | 0.902 | 0.945 | 0.705
6 | NCI-H1666 | 0.757 | 0.576 | 0.663 | 0.692 | 0.806 | 1.05 | 0.917 | 1.01 | 0.885 | 1 | 1.04 | 0.915 | 1 | 0.913 | 0.624 | 0.612 | 0.606 | 0.526
7 | HCC-15 | 0.625 | 0.621 | 0.603 | 0.689 | 0.65 | 0.944 | 0.815 | 0.847 | 0.8 | 0.727 | 0.827 | 0.82 | 0.795 | 0.793 | 0.463 | 0.442 | 0.409 | 0.335
8 | NCI-H1651 | 0.678 | 0.583 | 0.592 | 0.589 | 0.638 | 0.895 | 0.924 | 0.855 | 0.937 | 0.826 | 0.554 | 0.612 | 0.559 | 0.542 | 0.617 | 0.678 | 0.672 | 0.71
9 | NCI-H1395 | 0.754 | 0.674 | 0.739 | 0.695 | 0.669 |  |  |  |  |  | 0.749 | 0.802 | 0.722 | 0.666 | 0.76 | 0.747 | 0.718 | 0.689
10 | EPLC-272H | 0.455 | 0.391 | 0.339 | 0.391 | 0.358 |  | 0.855 | 0.877 | 0.918 | 1.01 | 0.493 | 0.599 | 0.41 | 0.296 | 0.206 | 0.268 | 0.283 | 0.152
11 | LXF-289 | 0.402 | 0.349 | 0.408 | 0.388 | 0.413 | 0.81 | 0.745 | 0.777 | 0.753 | 0.81 | 0.756 | 0.725 | 0.733 | 0.778 | 0.176 | 0.129 | 0.202 | 0.204
12 | NCI-H1437 | 0.634 | 0.551 | 0.527 | 0.562 | 0.512 | 1.02 | 1.04 | 1 | 1.04 | 0.897 | 0.877 | 0.82 | 0.829 | 0.853 | 0.426 | 0.386 | 0.391 | 0.422
13 | HCC-827 | 0.332 | 0.329 | 0.311 | 0.308 | 0.348 | 0.938 | 0.885 | 0.932 | 0.964 | 0.884 | 0.826 | 0.809 | 0.862 |  | 0.388 | 0.402 | 0.48 | 0.312
14 | NCI-H1650 | 0.373 | 0.377 | 0.455 | 0.322 | 0.343 | 1.08 | 0.917 | 0.916 | 1.1 | 0.696 | 0.605 | 0.448 | 0.651 | 0.553 | 0.411 | 0.467 | 0.357 | 0.434
15 | HCC-366 | 0.33 | 0.325 | 0.329 | 0.374 | 0.334 | 0.487 | 0.466 | 0.481 | 1.04 | 0.462 | 0.389 | 0.287 | 0.373 | 0.415 | 0.103 | 0.114 | 0.115 | 0.0949
16 | EKVX | 0.377 | 0.318 | 0.392 | 0.319 | 0.38 | 1.06 | 0.756 | 0.899 | 1.06 | 1 | 0.732 | 0.725 | 0.704 | 0.383 | 0.388 | 0.346 | 0.421 | 
17 | NCI-H2126 | 0.544 | 0.564 | 0.61 | 0.659 | 0.586 | 1.05 | 1.04 | 0.978 | 1.09 | 1.02 | 0.723 | 0.482 | 0.772 | 0.512 | 0.91 | 0.785 | 0.831 | 0.538
18 | LK-2 | 0.304 | 0.203 | 0.285 | 0.337 | 0.309 | 0.238 | 0.24 | 0.219 | 0.227 | 0.213 | 0.219 | 0.34 | 0.217 | 0.311 | 0.177 |  | 0.199 | 0.191
19 | NCI-H1563 |  |  |  |  |  | 0.867 | 0.841 | 0.862 | 0.848 | 0.847 |  |  |  |  |  |  |  | 
20 | COR-L23 | 0.326 | 0.473 | 0.431 | 0.487 | 0.413 | 0.678 | 0.722 | 0.577 | 0.718 | 0.667 | 0.528 | 0.509 | 0.426 | 0.608 | 0.185 | 0.188 | 0.184 | 0.234
